Like-named read-outs stand apart in the source and are kept apart here.
How the values were obtained:
[1] = tested on: Walker 256 rat sarcoma; conditions: in vivo; cited from earlier work
[2] = tested on: L1210 mouse leukemia; conditions: in vivo; cited from earlier work
[3] = tested on: nude mice; experiment: in vivo; set-up: species or system nude mice (BALB/c nu/nu); conditions: intravenous, continuous 5 days, maximum dose at which no animal was dead within 2 weeks, 20160 min
Protocol: (§1) (1) Measurement of maximum tolerated dose (MTD) of the spicamycin derivatives in nude mice
(§2) The spicamycin derivative was dissolved in dimethylsulfoxide (DMSO) and Cremophor EL® at the same volume as DMSO was added. Physiological saline was added so that the concentration of DMSO and Cremophor EL® was finally adjusted to 1%, respectively, and thus injection liquids of spicamycin derivative in a variety of concentrations were prepared. […] The maximum dose at which no animal was dead was defined as the MTD of the respective derivatives.

[4] = Acute toxicity (LD50); conditions: mouse, in vivo; intravenous, ICR mice (female, 6 weeks old), 14 days observation, Litchfield and Wilcoxon
Excerpt: The LD50 was obtained from the mortalities at the respective dosage groups by the Litchfield and Wilcoxon's method.

[5] = tested on: human colon cancer (COL-1); format: in vivo, mouse
Protocol: (2) Method for measuring the antitumor effect on human colon cancer (COL-1)
COL-1, a human colon cancer, was transplanted subcutaneously into nude mice. When the tumor had grown to a volume of about 100 mm^3, the nude mice were divided into groups of 5 animals so that the average tumor volumes of respective groups were equalized. The respective spicamycin derivatives were administered to test groups at their MTDs, while physiological saline (solvent) containing 1% DMSO and 1% Cremophor EL® was administered to the control group. […] RV is expressed as RV =Vn/Vo where Vn is the tumor volume on day n and Vo is the initial tumor volume at the time treatment was commenced.

[6] = in vivo; set-up: species or system nude mice (BALB/c nu/nu); conditions: mouse, in vivo; intravenous, continuous 5 days, nude mice; maximum dose at which no animal was dead within 2 weeks; read-out: Maximum tolerated dose
Protocol: as §1, §2

[7] = /minimum effective dose (effective: TGIR≥50)
[8] = COL-1 s.c. in nude mice, at MTD, TGIR=(1-Tx/Cx)×100, maximum during about 3 weeks
[9] = COL-1 s.c. in nude mice, at MTD, minimum throughout the test period

| Structure (SMILES) | MTD at 336 h [6] [mg/kg/day] | TGIR (tumor growth inhibition rate, maximum) [5, 8] | minTx (relative tumor volume when reduced to the minimum) [5, 9] | Therapeutic index ([5]; mouse, in vivo) | further results |
| --- | --- | --- | --- | --- | --- |
| CC(C)CCCCCCCCCCCCC(=O)NCC(=O)NC1C(O)C(O)C(Nc2ncnc3nc[nH]c23)OC1C(O)CO (stereo not shown) [septacidin] | – | – | – | – | antitumor activity against Walker 256 rat sarcoma [1]: no antitumor activity; antitumor activity against L1210 mouse leukemia [2]: no antitumor activity |
| CCCCCCCCC/C=C/C=C/C(=O)NCC(=O)N[C@@H]1[C@@H](O)[C@@H](O)[C@@H](Nc2ncnc3[nH]cnc23)O[C@H]1C(O)CO (stereo partly drawn) [SPK241, 6-[4'-N-(N'-trans,trans-2,4-tetradecadienoylglycyl)spicaminyl-amino]purine] | – | – | – | – | Maximum tolerated dose [3]: 6 mg/kg/day; LD50 at 336 h [4]: 110 mg/kg; Therapeutic index [5, 7]: 16; TGIR (tumor growth inhibition rate, maximum) ([5]; in vivo, sc): 97; minTx (relative tumor volume when reduced to the minimum) ([5]; in vivo, sc): 0.14 |
| O=C(CCCCCCCCCCCCCCCF)NCC(=O)NC1C(O)C(O)C(Nc2ncnc3[nH]cnc23)OC1C(O)CO (stereo not shown) [SPK157, 6-[4,-N-(N'-16-fluorohexadecanoylglycyl)spicaminyl-amino]purine] | 1.6 | 98 | 0.11 | – | Therapeutic index [5, 7]: 4 |
| CCCCCCCCCCCCCCC(O)C(=O)NCC(=O)NC1C(O)C(O)C(Nc2ncnc3[nH]cnc23)OC1C(O)CO (stereo not shown) [SPK112, 6-[4'-N-(N'-2-hydroxyhexadecanoylglycyl)spicaminyl-amino]purine] | 0.85 | 82 | – | – | Therapeutic index [5, 7]: 4 |
| O=C(CCCCCCCCCCCCl)NCC(=O)N[C@@H]1[C@@H](O)[C@@H](O)[C@@H](Nc2ncnc3[nH]cnc23)O[C@H]1C(O)CO (stereo partly shown) [SPK132, 6-[4'-N-(N'-12-chlorododecanoylglycyl)spicaminyl-amino]purine] | 12 | 98 | 0.08 | 4 | – |
| CCCCCCCCCCCCCC(=O)NCC(=O)N[C@@H]1[C@@H](O)[C@@H](O)[C@@H](Nc2ncnc3[nH]cnc23)O[C@H]1C(O)CO (stereo partly shown) [SPM10, 6-[4 ,-N-(N'-tetradecanoylglycyl)spicaminyl-amino]purine] | 2.6 | 98 | 0.10 | – | Therapeutic index [5, 7]: 4 |
| CCCC/C=C\CCCCCCCC(=O)NCC(=O)N[C@@H]1[C@@H](O)[C@@H](O)[C@@H](Nc2ncnc3[nH]cnc23)O[C@H]1C(O)CO (stereo partly drawn) [SPK231, 6-[4,-N-(N'-cis-9-tetradecenoylglycyl)spicaminyl-amino]purine] | 6 | 96 | 0.12 | 6 | – |
| CCCCCCCCCCC[C@H](O)CC(=O)NCC(=O)NC1C(O)C(O)C(Nc2ncnc3[nH]cnc23)OC1C(O)CO (single isomer, unassigned) [SPK274, 6-[4'-N-(N'-(s)-3-hydroxytetradecanoylglydyl)spicaminyl-amino]purine] | 24 | 92 | 0.16 | 4 | – |
| CCCCCCCCCCCCC/C=C/C(=O)NCC(=O)N[C@@H]1[C@@H](O)[C@@H](O)[C@@H](Nc2ncnc3[nH]cnc23)O[C@H]1C(O)CO (stereo partly drawn) [SPK188, 6-[4'-N-(N'-trans-2-hexadecenoylglycyl)spicaminyl-amino]purine] | 0.6 | 92 | – | – | – |
| O=C(CCCCCCCCCCBr)NCC(=O)N[C@@H]1[C@@H](O)[C@@H](O)[C@@H](Nc2ncnc3[nH]cnc23)O[C@H]1C(O)CO (stereo partly shown) [SPK64, 6-[4'-N-(N'-11-bromoundecanoylglycyl)spicaminyl-amino]purine] | 18 | 95 | – | 4 | – |
| O=C(CCCCCCCCCCCCCCl)NCC(=O)N[C@@H]1[C@@H](O)[C@@H](O)[C@@H](Nc2ncnc3[nH]cnc23)O[C@H]1C(O)CO (stereo partly shown) [SPK280, 6-[4'-N-(N'-14-chlorotetradecanoylglycyl)spicaminyl-amino]purine] | 9 | 94 | 0.19 | 8 | – |
| CC(C)CCCCCCCCCC(=O)NCC(=O)N[C@@H]1[C@@H](O)[C@@H](O)[C@@H](Nc2ncnc3[nH]cnc23)O[C@H]1C(O)CO (stereo partly shown) [SPK251, 6-[4'-N-(N'-11-methyldodecanoylglycyl)spicaminyl-amino]purine] | 6 | 97 | – | 8 | – |
| CC(C)CCCCCCCCC(=O)NCC(=O)N[C@@H]1[C@@H](O)[C@@H](O)[C@@H](Nc2ncnc3[nH]cnc23)O[C@H]1C(O)CO (stereo partly shown) [SPK9, 6-[4'-N-(N'-10-methylundecanoylglycyl)spicaminyl-amino]purine] | 6 | 99 | 0.05 | 4 | – |
| CCCCCCCCC/C=C/C=C/C(=O)NCC(=O)NC1C(O)C(O)C(Nc2ncnc3[nH]cnc23)OC1C(O)CO (stereo not drawn) [SPT241, 6-[4 -N-(N'-trans,trans-2,4-tetradecadienylglycyl)-septaminyl-amino]purine] | 3 | 93 | 0.24 | 8 | – |
| CCCCCCCC/C=C/C=C/C(=O)NCC(=O)N[C@@H]1[C@@H](O)[C@@H](O)[C@@H](Nc2ncnc3[nH]cnc23)O[C@H]1C(O)CO (stereo partly drawn) [SPK281, 6-[4'-N-(N'-trans,trans-2,4-tridecadienoylglycyl)spicaminyl-amino]purine] | 18 | 99 | 0.06 | 8 | – |
| CCCCCCCCCCCC(=O)NCC(=O)NC1C(O)C(O)C(Nc2ncnc3[nH]cnc23)OC1C(O)CO (stereo not shown) [SPM8, reference compound] | 10.4 | 94 | 0.19 | 4 | – |
| CC(C)CCCCCCCCCCC(=O)NCC(=O)N[C@@H]1[C@@H](O)[C@@H](O)[C@@H](Nc2ncnc3[nH]cnc23)O[C@H]1C(O)CO (stereo partly shown) [SPK136, 6-[4'-N-(N'-12-methyltridecanoylglycyl)spicaminyl-amino]purine] | 2 | 84 | – | – | Therapeutic index [5, 7]: 4 |
| CCCCCCCCCCCCCC(O)CC(=O)NCC(=O)NC1C(O)C(O)C(Nc2ncnc3[nH]cnc23)OC1C(O)CO (stereo not shown) [SPK115, 6-[4'-N-(N'-3-hydroxyhexadecanoylglycyl)-spicaminyl-amino]purine] | 3 | 99 | 0.08 | – | Therapeutic index [5, 7]: 4 |
| CCCCCCC/C=C/C=C/C(=O)NCC(=O)N[C@@H]1[C@@H](O)[C@@H](O)[C@@H](Nc2ncnc3[nH]cnc23)O[C@H]1C(O)CO (stereo partly drawn) [SPK282, 6-[4'-N-(N'-trans,trans-2,4-dodecadienoylglycyl)spicaminyl-amino]purine] | 36 | 99 | 0.07 | 16 | – |
| CCCCCCCCCCCCCC[C@@H](OC(C)=O)C(=O)NCC(=O)NC1C(O)C(O)C(Nc2ncnc3[nH]cnc23)OC1C(O)CO (stereo partly drawn) [SPK198, 6-[4'-N-(N'-(R) -2-acetoxyhexadecanoylglycyl)-spicaminyl-amino]purine] | 1.5 | 82 | – | – | – |
| O=C(CCCCCCCCC#Cc1ccoc1)NCC(=O)NC1C(O)C(O)C(Nc2ncnc3[nH]cnc23)OC1C(O)CO (stereo not shown) [SPK266, 6-{4'-N-[N'-11-(3'-furyl)-10-undecynoylglycyl]spicamynyl-amino}purine] | 12 | 97 | 0.18 | 8 | – |
| CCCCCCCCCCCCC(=O)NCC(=O)N[C@@H]1[C@@H](O)[C@@H](O)[C@@H](Nc2ncnc3[nH]cnc23)O[C@H]1C(O)CO (stereo partly shown) [SPM9, 6-[4 '-N-(N'-tridecanoylglycyl)spicaminyl-amino]purine] | 3.4 | 99 | 0.05 | 6 | – |
